How the values were obtained:
[1] = test system: lithium-induced nausea (conditioned rejection reactions); settings: previously reported, rats; cited from earlier work
[2] = test system: conditioned taste avoidance; settings: previously reported, as pretreatment agent; cited from earlier work
CB1 receptor = CB1 receptor (Homo sapiens, UniProt P21554); settings: cited from earlier work
[3] = test system: lithium-induced nausea (conditioned rejection reactions); experiment: Taste Reactivity (TR) test: lithium-induced conditioned rejection reactions to saccharin solution; format: in vivo, rats; settings: for establishment of conditioned rejection reactions: pretreatment 5 mg/kg ip 30 min prior to conditioning trial (saccharin-lithium pairing), versus vehicle pretreatment
Protocol: [drawing 3] • In Experiment 1 were used 29 male rats and in Experiment 2 were used 24 male Sprague-Dawley rats (Charles River Labs, St. Constant, Quebec), which weighed 290-350 gm on the conditioning day. They were individually housed in stainless steel hanging cages in a colony room kept at 21° C. on a 12:12 hr light:dark schedule with the lights on at 07.00 h. Throughout the experiment, the rats were maintained on ad-lib Purina Rat Chow and water. The procedures were approved by the Wilfrid Laurier University Animal Care Committee according to the guidelines of the Canadian Council on Animal Care. • b. The rats were surgically implanted with intra-oral cannulae as described by Parker, L. A. Learn Motiv., 13, 281-303 (1982). The surgical anesthesia preparation included administration of 0.4 mg/kg atropine solution i.p. 15 min prior to ketamine (75 mg/kg, i.p.) combined with xylazine (10 mg/kg, i.p.) which was dissolved in sterile water and administered at a volume of 1 ml/kg. On each of three subsequent days during recovery from surgery, the cannulae were flushed with a chlorhexidine rinse (Novlosan; 0.1% chlorhexidine) to prevent infection. • c. […] The rats were randomly assigned to independent groups on the basis of the pretreatment drug and the conditioning drug. In Experiment 1, the groups were as follows: CBD-lithium (n=8), CBD-saline (n=6), Vehicle-lithium (n=8), Vehicle-saline (n=7). In Experiment 2, the groups were as follows: CBD-DMH-lithium (n=6), CBD-DMH-saline (n=6), Vehicle-lithium (n=6), Vehicle-saline (n=6). […] The order of the test trials was counterbalanced among the rats in each group. • d. […] On this trial, the water bottles were replaced with tubes containing the saccharin solution and the amounts consumed over a 6 hr period of drinking were recorded. • i. Taste reactivity scoring: A rater blind to the experimental conditions scored the videotapes on two occasions in slow motion (⅕ speed) using the Observer (Noldus, NL) event-recording program on a PC computer. […]

[4] = test system: conditioned taste avoidance; experiment: Consumption test of lithium-paired saccharin solution (conditioned taste avoidance); format: in vivo; settings: pretreatment 5 mg/kg prior to conditioning; 6 hr consumption test on day following final TR test, non-deprived rats
Protocol: [drawing 3] • In Experiment 1 were used 29 male rats and in Experiment 2 were used 24 male Sprague-Dawley rats (Charles River Labs, St. Constant, Quebec), which weighed 290-350 gm on the conditioning day. They were individually housed in stainless steel hanging cages in a colony room kept at 21° C. on a 12:12 hr light:dark schedule with the lights on at 07.00 h. Throughout the experiment, the rats were maintained on ad-lib Purina Rat Chow and water. The procedures were approved by the Wilfrid Laurier University Animal Care Committee according to the guidelines of the Canadian Council on Animal Care. • b. The rats were surgically implanted with intra-oral cannulae as described by Parker, L. A. Learn Motiv., 13, 281-303 (1982). The surgical anesthesia preparation included administration of 0.4 mg/kg atropine solution i.p. 15 min prior to ketamine (75 mg/kg, i.p.) combined with xylazine (10 mg/kg, i.p.) which was dissolved in sterile water and administered at a volume of 1 ml/kg. […] On this trial, the water bottles were replaced with tubes containing the saccharin solution and the amounts consumed over a 6 hr period of drinking were recorded. • i. Taste reactivity scoring: A rater blind to the experimental conditions scored the videotapes on two occasions in slow motion (⅕ speed) using the Observer (Noldus, NL) event-recording program on a PC computer. […]

Sequence of CB1 receptor (P21554 whole entry): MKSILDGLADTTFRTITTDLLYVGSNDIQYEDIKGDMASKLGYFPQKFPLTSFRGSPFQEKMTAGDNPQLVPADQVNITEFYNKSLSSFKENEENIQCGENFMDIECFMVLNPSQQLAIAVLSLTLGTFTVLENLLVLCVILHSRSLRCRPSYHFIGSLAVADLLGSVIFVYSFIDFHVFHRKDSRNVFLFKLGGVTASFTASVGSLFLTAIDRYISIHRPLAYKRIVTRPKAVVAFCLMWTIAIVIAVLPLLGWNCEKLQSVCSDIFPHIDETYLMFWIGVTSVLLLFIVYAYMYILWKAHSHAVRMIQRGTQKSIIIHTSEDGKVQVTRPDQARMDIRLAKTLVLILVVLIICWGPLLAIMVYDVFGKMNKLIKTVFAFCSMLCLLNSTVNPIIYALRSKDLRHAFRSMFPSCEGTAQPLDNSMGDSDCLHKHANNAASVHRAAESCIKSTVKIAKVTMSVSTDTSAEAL

Structure (SMILES) | establishment and expression of conditioned rejection reactions [1] | establishment of conditioned taste avoidance in a consumption test [2] | affinity for the CB1 receptor (CB1 receptor) | establishment of conditioned rejection reactions [3] | strength of avoidance response (ml saccharin solution consumed) [4] | expression of previously established conditioned rejection reactions ([3]; 5 mg/kg ip 30 min prior to TR test trial, lithium-conditioned male Sprague-Dawley rats, versus vehicle test trial)
CCCCCc1cc(O)c2c(c1)OC(C)(C)[C@@H]1CCC(C)=C[C@@H]21 [THC] | interfered with the establishment and the expression of conditioned rejection reactions | – | – | – | – | –
Cc1nccn1CC1CCc2c(c3ccccc3n2C)C1=O (stereo not drawn) [ondansetron] | interfered with the establishment and the expression of conditioned rejection reactions | did not interfere with the establishment of conditioned taste avoidance | – | – | – | –
C=C(C)C1CCC(C)=CC1c1c(O)cc(C(C)(C)CCCCCC)cc1O (stereo not drawn) [CBD-DMH, cannabidiol-dimethyl heptyl] | – | – | relatively weak affinity | interfered with the establishment of conditioned rejection reactions | did not modulate the strength of the avoidance response | –
C=C(C)[C@@H]1CCC(C)=C[C@H]1c1c(O)cc(CCCCC)cc1O [CBD, cannabidiol] | – | – | – | attenuated the establishment of conditioned rejection reactions | did not modulate the strength of the avoidance response | attenuated the expression of previously established conditioned rejection reactions

— patent US8119697B2 (Yissum Research Development Company of the Hebrew …, priority 2002, dated 2012)
